Assay results: patent EP4778924A1 (Huons Co., Ltd., priority 2023, dated 2025)
pIC50: −log10 of the molar value. “Also recorded” adds a separate entry of the source.

Experiments:
[1] = molecular target: T1, Proton Pump (H^+,K^+-ATPase) (Sus scrofa, UniProt P19156); experiment: Inhibitory activity on proton pump (H+,K+-ATPase) activity, porcine gastric vesicles, malachite green readout; type: biochemical; settings: for pIC50: porcine gastric vesicles, pH 6.5, 8 mM KCl, 0.2 mM ATP
T1 construct: gastric vesicles were isolated from porcine stomachs; from tissue; host or cells: porcine stomach (gastric vesicles)
Procedure, shortened: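 Porcine gastric vesicles (100 ng) preincubated 30 min at 37°C with […] valinomycin and compound (0.1% DMSO final) in 50 mM Tris-HEPES, 5 mM MgCl2, 8 mM KCl, pH 6.5, then 0.2 mM ATP for 20 min at 37°C. Released phosphate measured by malachite green at 620 nm; IC50 via nonlinear regression of % inhibition.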

Pylorus-Ligated Rats = experiment: Inhibitory activity on basal gastric acid secretion in pylorus-ligated rats (Shay's rat model); type: in vivo, male Sprague Dawley (SD) rats; settings: for inhibition in vivo at 2 mg/kg: Rattus norvegicus, po, read-out: GERD (rat/mpk); for inhibitory activity against basal gastric acid secretion: result in words, pyloric-ligated rats, 2 mg/kg oral
Description: Specifically, male Sprague Dawley (SD) rats (weighing 180-220 g) were fasted for 24 hours with only water, and then randomly assigned to groups (n=4-5) after measuring body weight. The negative control group was orally administered 10% dimethylsulfoxide (DMSO)/10% Cremophor EL/80% D.W. at 2 mL/kg, and the test group was orally administered the test compound at 2 mg/kg/2 mL. One hour after administration, the rats' abdominal cavity was incised under isoflurane anesthesia, the stomach was exposed, and the pylorus was ligated. Three hours after ligation, the test animals were sacrificed and the stomach contents were collected by laparotomy again. The contents were centrifuged (3,000 rpm, 10 min), and only the supernatant was separated to obtain gastric juice. Afterwards, gastric fluid volume measurement, gastric fluid pH measurement, NaOH titration, and total gastric acid secretion calculation (gastric fluid volume × 0.1 N NaOH titer × 100) were sequentially performed.

T1 sequence (P19156 2-1034 limits assumed): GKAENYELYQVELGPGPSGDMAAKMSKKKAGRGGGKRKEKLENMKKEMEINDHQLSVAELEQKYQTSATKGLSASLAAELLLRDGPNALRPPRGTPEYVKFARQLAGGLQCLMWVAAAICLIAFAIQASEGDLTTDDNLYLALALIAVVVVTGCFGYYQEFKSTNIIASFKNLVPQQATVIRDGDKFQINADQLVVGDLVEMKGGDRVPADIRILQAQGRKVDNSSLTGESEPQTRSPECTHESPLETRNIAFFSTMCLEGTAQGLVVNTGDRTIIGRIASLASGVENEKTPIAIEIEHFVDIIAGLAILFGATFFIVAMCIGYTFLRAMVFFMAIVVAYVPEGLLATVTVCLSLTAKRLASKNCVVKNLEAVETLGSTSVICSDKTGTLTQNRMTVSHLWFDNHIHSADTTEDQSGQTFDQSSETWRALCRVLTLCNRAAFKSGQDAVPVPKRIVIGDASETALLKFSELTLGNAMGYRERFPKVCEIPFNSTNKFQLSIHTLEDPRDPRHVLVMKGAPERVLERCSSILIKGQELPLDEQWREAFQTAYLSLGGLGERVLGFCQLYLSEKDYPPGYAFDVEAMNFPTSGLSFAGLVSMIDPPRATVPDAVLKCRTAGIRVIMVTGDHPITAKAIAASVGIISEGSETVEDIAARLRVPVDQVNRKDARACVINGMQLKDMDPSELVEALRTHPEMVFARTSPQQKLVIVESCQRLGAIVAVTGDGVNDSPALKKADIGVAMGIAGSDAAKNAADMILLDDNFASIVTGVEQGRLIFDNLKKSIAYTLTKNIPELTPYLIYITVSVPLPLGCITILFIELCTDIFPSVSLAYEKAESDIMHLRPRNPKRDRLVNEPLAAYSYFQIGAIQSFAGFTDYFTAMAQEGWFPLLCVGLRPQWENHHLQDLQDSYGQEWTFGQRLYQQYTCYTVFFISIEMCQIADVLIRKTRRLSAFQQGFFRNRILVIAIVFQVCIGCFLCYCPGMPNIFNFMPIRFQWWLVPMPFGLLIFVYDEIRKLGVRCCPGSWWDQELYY
T1 sequence (P18434 whole entry partner): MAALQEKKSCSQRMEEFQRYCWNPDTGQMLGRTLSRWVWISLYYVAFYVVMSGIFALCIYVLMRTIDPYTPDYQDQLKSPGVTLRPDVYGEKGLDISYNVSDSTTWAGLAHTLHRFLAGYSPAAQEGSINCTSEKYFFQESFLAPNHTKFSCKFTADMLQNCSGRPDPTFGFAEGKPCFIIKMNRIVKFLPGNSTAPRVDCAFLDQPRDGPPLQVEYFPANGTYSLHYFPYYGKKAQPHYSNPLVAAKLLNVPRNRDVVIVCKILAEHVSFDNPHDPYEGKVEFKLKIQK

SMILES	pIC50 [1]	inhibitory activity against proton pump activity ([1]; result in words)	inhibition in vivo at 2 mg/kg (Pylorus-Ligated Rats) [%]	inhibitory activity against basal gastric acid secretion (Pylorus-Ligated Rats)	inhibitory activity against basal gastric acid secretion (Pylorus-Ligated Rats; citrate, 2 mg/kg)
Cc1cccc(C)c1CNc1cc(N2C(=O)CNC2=O)cn2c(C)c(C)nc12 [Example 60, 3-(8-((2,6-dimethylbenzyl)amino)-2,3-dimethylimidazo[1,2-a]pyridin-6-yl)imidazolidine-2,4-dione]	> 7.30	excellent inhibitory properties	≥ 90	inhibitory activity	
Cc1cccc(C)c1CNc1cc(NC(=O)CCO)cn2c(C)c(C)nc12.O=C(O)CC(O)(CC(=O)O)C(=O)O [Example 102, N-(8-((2,6-dimethylbenzyl)amino)-2,3-dimethylimidazo[1,2-a]pyridin-6-yl)-3-hydroxypropanamide citrate]	> 7.30		≥ 90	inhibitory activity	

Now from value to compound, other results behind:

pIC50 [1]	inhibitory activity against proton pump activity ([1]; result in words)	SMILES	inhibition in vivo at 2 mg/kg (Pylorus-Ligated Rats) [%]	inhibitory activity against basal gastric acid secretion (Pylorus-Ligated Rats)	inhibitory activity against basal gastric acid secretion (Pylorus-Ligated Rats; citrate, 2 mg/kg)
> 7.30		Cc1cc(F)cc(C)c1CNc1cc(NC(=O)CO)cn2c(C)c(C)nc12.O=C(O)CC(O)(CC(=O)O)C(=O)O [Example 86, N-(8-((4-fluoro-2,6-dimethylbenzyl)amino)-2,3-dimethylimidazo[1,2-a]pyridin-6-yl)-2-hydroxyacetamide citrate]	≥ 90	inhibitory activity	
> 7.30		COCC(=O)Nc1cc(NCc2c(C)cc(F)cc2C)c2nc(C)c(C)n2c1.O=C(O)CC(O)(CC(=O)O)C(=O)O [Example 100, N-(8-((4-fluoro-2,6-dimethylbenzyl)amino)-2,3-dimethylimidazo[1,2-a]pyridin-6-yl)-2-methoxyacetamide citrate]	≥ 90	inhibitory activity	
> 7.30		Cc1cc(F)cc(C)c1CNc1cc(NC(=O)CCO)cn2c(C)c(C)nc12.O=C(O)CC(O)(CC(=O)O)C(=O)O [Example 101, N-(8-((4-fluoro-2,6-dimethylbenzyl)amino)-2,3-dimethylimidazo[1,2-a]pyridin-6-yl)-3-hydroxypropanamide citrate]	70 to 80		inhibitory activity; also recorded: somewhat reduced
